According to PubChem BioAssay (NCI):
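Each compound was tested at five concentrations against cells in 96-well plates for 48 hours. Here, GI50 denotes the concentration required for 50% inhibition of growth. TGI marks complete inhibition of growth.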

Assays:
Test in all cases: NCI tumour cell line growth inhibition, 48 h
SK-MEL-5 melanoma = system: SK-MEL-5 melanoma
IGROV1 ovarian = system: IGROV1 ovarian
HCT-15 colon = system: HCT-15 colon
OVCAR-8 ovarian = system: OVCAR-8 ovarian
CAKI-1 renal = system: CAKI-1 renal
OVCAR-4 ovarian = system: OVCAR-4 ovarian
HT29 colon = system: HT29 colon
SK-MEL-28 melanoma = system: SK-MEL-28 melanoma
SNB-75 CNS = system: SNB-75 CNS
HOP-92 NSCLC = system: HOP-92 NSCLC

SMILES | TGI (SK-MEL-5 melanoma) | TGI (IGROV1 ovarian) | TGI (HCT-15 colon) | TGI (OVCAR-8 ovarian) | TGI (CAKI-1 renal) | TGI (OVCAR-4 ovarian) | TGI (HT29 colon) | TGI (SK-MEL-28 melanoma) | TGI (SNB-75 CNS) | TGI (HOP-92 NSCLC) | GI50 (SK-MEL-5 melanoma) | GI50 (IGROV1 ovarian) | GI50 (HCT-15 colon) | GI50 (OVCAR-8 ovarian) | GI50 (CAKI-1 renal) | GI50 (OVCAR-4 ovarian) | GI50 (HT29 colon) | GI50 (SK-MEL-28 melanoma) | GI50 (SNB-75 CNS) | GI50 (HOP-92 NSCLC)
CN(C)CCNC(=O)c1cccc2c(Nc3ccc(S(N)(=O)=O)cc3)c3ccccc3nc12 | 10.3 µM | 16 µM | 7.07 µM | 3.73 µM | 13.6 µM | 5.77 µM | 8.35 µM | 3 µM | 4.48 µM | 7.27 µM |  |  |  |  |  |  |  |  |  | 
CS(=O)(=O)CCNCc1ccc(-c2ccc3ncnc(Nc4ccc(OCc5cccc(F)c5)c(C(F)(F)F)c4)c3c2)o1 | 5.9 µM | 13.5 µM | 9.12 µM | 11.2 µM | 13.7 µM | 10.8 µM | 8.92 µM | 7.2 µM | 7.77 µM | 6.34 µM | 2.84 µM | 4.56 µM | 4.02 µM | 4.76 µM | 4.59 µM | 3.65 µM | 4.54 µM | 3.71 µM | 3.52 µM | 0.847 µM
CN(C)C/C=C/C(=O)Nc1cc2c(Nc3ccc(F)c(Cl)c3F)ncnc2cc1OCCOC(F)F | 3.39 µM | 0.39 µM | 2.96 µM | 9.9 µM | 1.13 µM | 10.7 µM | 5 µM | 9.59 µM | 2.47 µM | 1.13 µM | 1.6 µM | < 0.01 µM | 0.491 µM | 0.972 µM | < 0.01 µM | 1.18 µM | 0.422 µM | 2.29 µM | 0.162 µM | 0.0585 µM
Cc1nc([C@H]2CC[C@H]3[C@@H]4CCC5=CC(=O)CC[C@]5(C)[C@H]4CC[C@]23C)cs1 | > 100 µM | > 100 µM | > 100 µM | > 100 µM | > 100 µM | > 100 µM | > 100 µM | > 100 µM | > 100 µM | > 100 µM | 1.45 µM | > 40.3 µM | 4.97 µM | 4.62 µM | 2.3 µM | 3.02 µM | 5.15 µM | > 100 µM | > 27 µM | > 28.9 µM
COC(=O)c1c(O)c([N+](=O)[O-])cc2c1c1c(n2Cc2ccccc2)C(=O)c2ccccc2C1=O | 14.7 µM | > 100 µM | > 100 µM | 53.1 µM | > 100 µM | > 100 µM | > 100 µM | > 100 µM | > 100 µM | 63 µM | 3.63 µM | 35.1 µM | 34.6 µM | 14.1 µM | 38.2 µM | 57.3 µM | 18.9 µM | 34.9 µM | > 100 µM | 8.08 µM
Fc1ccc(-c2ncn(C3CCNCC3)c2-c2ccnc(Oc3ccc(F)c(F)c3)n2)cc1 | 6.83 µM | > 22.6 µM | 15.6 µM | 10.9 µM | > 20.6 µM | 18.3 µM | 8.12 µM | 8.79 µM | > 25 µM | 15.6 µM | 3.55 µM | 8.61 µM | 5.64 µM | 4.96 µM | 10.6 µM | 5.91 µM | 4.36 µM | 4.57 µM | 8.64 µM | 3.28 µM
Cc1nc(CN2CCCCC2)c(O)c(=O)[nH]1 | > 100 µM | > 100 µM | > 100 µM | > 100 µM | > 100 µM | > 100 µM | > 100 µM | > 100 µM | > 100 µM | > 100 µM |  |  |  |  |  |  |  |  |  | 
COC1=CC23CCCN2CCc2cc4c(cc2C3C1O)OCO4 (stereo not given) | 54 µM | > 100 µM | > 100 µM | > 100 µM | 92 µM | > 100 µM | > 100 µM | > 100 µM | > 100 µM | > 100 µM |  |  |  |  |  |  |  |  |  | 
COc1cc(O)c2c(c1)C(=O)C=C(Cl)C2=O | > 100 µM | > 100 µM | > 100 µM | > 100 µM | > 100 µM | > 100 µM | > 100 µM | > 100 µM | > 100 µM | > 100 µM |  |  |  |  |  |  |  |  |  | 
O=C(Cc1nc2ccccc2s1)C(=O)Nc1cccc(Cl)c1 | > 100 µM | > 100 µM | > 100 µM | > 100 µM | > 100 µM | > 100 µM | > 100 µM | > 100 µM | > 100 µM | > 100 µM |  |  |  |  |  |  |  |  |  | 
Cc1cc(O)c(C2=NN(c3ccc(S(N)(=O)=O)cc3)C(c3ccc(N(C)C)cc3)C2)c(C)c1Cl (stereo not given) | 27.8 µM | 59 µM | 32 µM | > 100 µM | > 100 µM | 27.6 µM | 25.8 µM | 35.6 µM | 42.2 µM | 23.6 µM | 14.5 µM | 18.3 µM | 14.2 µM | 27.3 µM | 23.3 µM | 13.3 µM | 10.9 µM | 19.4 µM | 17 µM | 10.3 µM
C#CCN(N=O)C(=O)NC(CCCNC(=O)OCc1ccccc1)C(=O)OCc1ccccc1 (stereo not given) | > 100 µM | > 100 µM | > 100 µM | > 100 µM | 47.2 µM | > 100 µM | > 100 µM | > 100 µM | > 100 µM | 96.3 µM |  |  |  |  |  |  |  |  |  | 
CCOC(=O)C(=O)Nc1ccc(Cl)cc1C | > 100 µM | > 100 µM | > 100 µM | > 100 µM | > 100 µM | > 100 µM | > 100 µM | > 100 µM | > 100 µM | > 100 µM |  |  |  |  |  |  |  |  |  | 
C[C@@H]1Cc2c([nH]c3ccccc23)[C@@H](c2c(F)cc(NC3CN(CCCF)C3)cc2F)N1CC(F)(F)CO | 3.68 µM | 10.8 µM | 12.7 µM | 33 µM | 15.7 µM | 21.9 µM | 15.3 µM | 6.49 µM | 20.5 µM | 6.36 µM | 1.92 µM | 2.77 µM | 3.5 µM | 11.7 µM | 3.66 µM | 9.86 µM | 3.7 µM | 2.45 µM | 4.92 µM | 1.15 µM
